Measurements taken from PMC1192819, “Molecular cloning and characterization of a nuclear androgen receptor activated by 11-ketotestosterone” (Reproductive biology and endocrinology : RB&E, 2005).

How the values were obtained:
[1] = target: AR in stickleback kidney cytosolic fraction; test: Saturation and Scatchard analysis, kidney cytosolic fraction; format: binding, three-spined stickleback (Gasterosteus aculeatus); conditions: overnight 4°C
Method: Aliquots (250 μl) of the nuclear or cytosolic preparations were added to each tube, the tubes were vortexed and incubated over night at 4°C. To stop the binding reaction, 250 μl DCC was added to each tube. The tubes were vortexed and the suspensions were incubated for 5 min at 4°C, before spinning at 3,000 × g at 4°C for 5 min. The supernatants were decanted into 7 ml scintillation vials, 5 ml of standard scintillation cocktail was added and the radioactivity in each sample was measured in a liquid scintillation counter (Beckman LS 6000SC, Beckman Instruments, Fullerton, CA). The procedure used for the expressed recombinant ARβ2 was modified as follows. […] The expressed proteins were diluted 1:100 and aliquots (100 μl) were added to each reaction tube. The tubes were vortexed and incubated over night at 4°C. To stop the binding reaction, 200 μl DCC was added to each tube. The tubes were vortexed and the suspension were incubated for 5 min at 4°C, before spinning at 3,000 × g at 4°C for 5 min. 250 μl of the supernatant was transferred into 5 ml scintillation vials and 4 ml of standard scintillation cocktail was added before the radioactivity in each sample was measured in a liquid scintillation counter (Wallac 1409, Wallac Oy, Turku, Finland).

[2] = target: recombinant stickleback ARβ2 (Gasterosteus aculeatus, UniProt Q801Z2); conditions: recombinant ARβ2, reticulocyte extract
Chain of recombinant stickleback ARβ2 (Q801Z2 1-735): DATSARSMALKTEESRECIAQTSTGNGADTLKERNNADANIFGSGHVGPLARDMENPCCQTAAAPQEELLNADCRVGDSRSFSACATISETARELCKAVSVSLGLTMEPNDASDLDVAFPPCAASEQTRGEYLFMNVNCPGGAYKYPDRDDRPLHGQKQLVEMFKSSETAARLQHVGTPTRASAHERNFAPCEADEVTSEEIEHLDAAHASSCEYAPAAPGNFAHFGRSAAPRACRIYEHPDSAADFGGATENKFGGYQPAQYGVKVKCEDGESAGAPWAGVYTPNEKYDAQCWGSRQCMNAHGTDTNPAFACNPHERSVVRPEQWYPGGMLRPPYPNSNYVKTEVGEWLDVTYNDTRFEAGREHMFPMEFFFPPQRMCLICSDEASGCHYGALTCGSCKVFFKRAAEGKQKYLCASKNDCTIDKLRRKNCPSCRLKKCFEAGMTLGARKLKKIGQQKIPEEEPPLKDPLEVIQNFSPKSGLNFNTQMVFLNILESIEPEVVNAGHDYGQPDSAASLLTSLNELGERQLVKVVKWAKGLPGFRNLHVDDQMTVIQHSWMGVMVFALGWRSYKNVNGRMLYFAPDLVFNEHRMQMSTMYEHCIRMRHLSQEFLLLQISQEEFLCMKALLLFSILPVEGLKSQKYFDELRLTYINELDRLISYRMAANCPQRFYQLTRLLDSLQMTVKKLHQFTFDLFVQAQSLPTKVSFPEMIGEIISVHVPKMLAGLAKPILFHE
Method: The excised AR pBK CMV clones were digested with XbaI and EcoRI and the inserts were gel purified prior to ligation into the pCMV-TNT vector (Promega) between XbaI and EcoRI. […] AR was expressed by introducing the pCMV-TNT into the TNT coupled reticulocyte lysate system (Promega) according to the manufacturer's instructions. The size of the expressed products was determined by addition of S^35-methionin to the reticulocyte lysate system. The obtained protein suspension was analyzed on a denaturing 8% SDS PAGE and the sizes were determined using prestained SDS-PAGE broad range protein molecular weight standard (Bio-Rad) and a control luciferase protein of 62 kDa included in the reticulocyte lysate system (Promega). […]
Aliquots (250 μl) of the nuclear or cytosolic preparations were added to each tube, the tubes were vortexed and incubated over night at 4°C. […] The supernatants were decanted into 7 ml scintillation vials, 5 ml of standard scintillation cocktail was added and the radioactivity in each sample was measured in a liquid scintillation counter (Beckman LS 6000SC, Beckman Instruments, Fullerton, CA). […] 250 μl of the supernatant was transferred into 5 ml scintillation vials and 4 ml of standard scintillation cocktail was added before the radioactivity in each sample was measured in a liquid scintillation counter (Wallac 1409, Wallac Oy, Turku, Finland).

[3] = test system: AR in three-spined stickleback kidney cytosolic extracts; conditions: 4°C
Method: The reaction was terminated at different time-points ranging between 1 min and 24 h. The specific binding at each time-point was determined as described above.

C[C@]12CCC(=O)C[C@@H]1CC[C@@H]1[C@@H]2CC[C@]2(C)[C@@H](O)CC[C@@H]12 [[^3H]-DHT]
Kd [1]: 18.7 ± 3.21 nM | Bmax [2]: 0.324 ± 0.04 pmol/mg protein | association t1/2 ([3]; 4 nM tracer): 3.3 min | time to reach binding equilibrium ([3]; 4 nM tracer): 20 min | dissociation t1/2 ([3]; 100-fold excess unlabelled DHT): 80 min | time to complete dissociation ([3]; 100-fold excess unlabelled DHT): ≤ 8 h
